Our source for the IC90, IC50 and CC50 values is PubChem BioAssay AID1626 (SRMLSC, 2009).

This assay deals with M. tuberculosis H37Rv growth inhibition. The experiment in a line: M. tuberculosis H37Rv growth inhibitors, H37Rv strain (AID 1626). The settings on record: for IC90: measured here: IC90 against H37Rv; for CC50: measured here: Vero cell cytotoxicity.

For the compound `O=C1N=C(N2CCOCC2)S/C1=C/c1ccc(-c2ccc(F)cc2)o1`, the IC90 was > 100 µM.
Turning to `Nc1cc2nc3ccccc3oc-2cc1=O`, the IC50 was 0.368 µM, the IC90 is 0.916 µM and the CC50 was > 40 µM.
`Nc1ccc2ncccc2c1`: the IC50 is 37.9 µM and the IC90 was > 100 µM.
As for `CCCCCc1cc(=O)oc2c(C(CCN3CCCCC3)c3ccc(OC)cc3)c(OC)cc(OC)c12` (stereo unspecified), the IC50 is 2.86 µM, the IC90 turned out to be 3.91 µM and the CC50 was 14.9 µM.
As to `O=C(Nc1nnc(SCc2ccc(F)cc2)s1)c1cnccn1`, the IC50 was 15.6 µM, the concentration for an effect of 90% (IC90) is > 100 µM and the CC50 was > 40 µM.
For `O=C(CSC1=NCCS1)Nc1ccc2ccccc2c1`, the concentration for an effect of 90% (IC90) is > 100 µM.
Regarding `CCCSc1cc(N2CCN(C)CC2)nc(-c2ccc(OC)cc2)n1`, the IC50 is 10.9 µM, the IC90 was 12.2 µM and the CC50 is > 40 µM.
On to `COC(=O)COc1cccc(NC(=O)COc2ccccc2)c1`, for which the concentration for half-maximal inhibition (IC50) was 2.72 µM and the IC90 came to 4 µM.
As to `Oc1c(Cl)cc(Cl)c2cccnc12`, the IC50 was 0.779 µM, the concentration for an effect of 90% (IC90) amounted to 0.858 µM and the half-maximal cytotoxic concentration (CC50) turned out to be 11.9 µM.
As for `Cc1cc(Cl)n2ncc(-c3ccccc3)c2n1`, the half-inhibitory concentration (IC50) is 58.1 µM, the IC90 was > 100 µM and the CC50 is > 40 µM.
Regarding `Cc1ccccc1-n1c(O)c(C=Nc2ccc3c(c2)OCO3)c(=O)[nH]c1=O`, the IC90 was > 100 µM.
Take `Cc1cc2ncn(/N=C/c3ccc([N+](=O)[O-])s3)c2cc1C`: the IC50 was < 0.195 µM, the IC90 was 0.282 µM and the cytotoxic concentration (CC50) is 8.74 µM.
With `c1ccc(-c2nc(NCc3ccco3)c3ccccc3n2)nc1`, the IC50 is 1.92 µM, the IC90 was 3 µM and the 50% cytotoxic concentration (CC50) stood at 9.33 µM.
On to `Cc1nc2ccc(NC(=O)N(C(C)C)C(C)C)cc2s1`, for which the IC50 was 20.2 µM and the IC90 was > 100 µM.
`CCN(CC)CCOC(=O)c1ccc(N/C=C(/C#N)c2nc(-c3cccc(OC)c3)cs2)cc1`: the half-inhibitory concentration (IC50) is 4.42 µM, the IC90 came out at 20.2 µM and the CC50 is 10.8 µM.
`O=C1c2ccc3c4c(ccc(c24)C(=O)N1CCCCO)C(=O)N(CCCCO)C3=O`: the IC50 was 7.04 µM, the IC90 is 12.9 µM and the CC50 turned out to be 5.2 µM.
Consider `O=C(/C=C/Nc1ccc(Oc2ccccc2Cl)cc1)c1ccco1`, for which the IC90 was > 100 µM and the half-maximal cytotoxic concentration (CC50) is > 40 µM.
As for `O=C(Nc1ccccc1Cl)Oc1ccc2ccccc2c1`, the concentration for an effect of 90% (IC90) is > 100 µM.
Take `O=C(CSCC(=O)N1CCCCC1)Nc1nc(-c2ccc(Cl)s2)cs1`: the half-inhibitory concentration (IC50) is 44 µM and the IC90 was > 100 µM.
With `O=C(Nc1nc(-c2cc(F)ccc2F)cs1)c1ccccn1`, the IC50 is 3.8 µM, the IC90 came out at 67.8 µM and the 50% cytotoxic concentration (CC50) was 21.2 µM.
Turning to `CCCCOc1ccc(NC(=O)C2CC=CCC2C(=O)O)cc1` (stereo unspecified), the IC50 was 75.7 µM and the IC90 was > 100 µM.
Regarding `Cc1[nH]n2c(=O)c3c(nc2c1-c1ccc(Cl)cc1)CCC3`, the IC50 is 13.3 µM, the IC90 turned out to be 31 µM and the CC50 stood at 19.6 µM.
For the compound `N=c1c2c(ncn1Cc1ccco1)Oc1c(ccc3ccccc13)C2c1ccccc1` (stereo unspecified), the IC50 is 3.88 µM, the IC90 was 5.43 µM and the CC50 was 8.95 µM.
For the compound `CCCCCC(=O)c1ccc(O)cc1O`, the IC50 was 63.3 µM and the IC90 is > 100 µM.
In the same order, the values of `CCOC(=O)c1c(C)oc2ccc(OC(=O)c3cccs3)cc12` are 2.08 µM and 13.6 µM.
Regarding `O=C(Nc1ccc(F)cc1F)Nc1csc2ccccc12`, the IC50 is < 0.391 µM, the IC90 was 52.7 µM and the CC50 was > 40 µM.
Take `CC(C)(C)c1ccccc1OCCCCCn1ccnc1`: the concentration for half-maximal inhibition (IC50) is 8.29 µM, the IC90 worked out at 10.9 µM and the CC50 was > 40 µM.
On to `Cc1csc(NC(=O)CSc2ccc(-c3ccccn3)nn2)n1`, for which the IC50 was 5.48 µM, the IC90 was 6.15 µM and the CC50 was > 40 µM.
Take `CCC(C)Nc1nc2c(C)cccn2c(=O)c1C=Nc1ccc(OC)cc1` (stereo unspecified): the concentration for half-maximal inhibition (IC50) is 52.4 µM and the IC90 is > 100 µM.
Turning to `COc1ccc(-c2nc(Cn3c(SCc4ccc(C)cc4)nc4ccncc43)c(C)o2)cc1OC`, the half-maximal inhibitory concentration (IC50) was 6.52 µM, the concentration for an effect of 90% (IC90) was > 100 µM and the CC50 is > 40 µM.
For `Nc1ccc(N=Nc2ccccc2)cc1`, the IC90 is > 100 µM.
`Cc1nc(N)nc(N)c1/C=C/C(C)(C)c1ccc(Cl)cc1`: the IC50 was 0.562 µM, the IC90 was found to be 1.29 µM and the CC50 is < 0.078 µM.
Take `Brc1c(-c2ccc3c(c2)OCO3)nc2ncccn12`: the half-maximal inhibitory concentration (IC50) was 2.23 µM, the IC90 was 7.15 µM and the CC50 is > 40 µM.
In the case of `Cc1ccc(C(=O)Oc2cccc(NC(=O)c3ccccc3)c2)cc1C`, the half-inhibitory concentration (IC50) is 7.76 µM and the IC90 stood at 12.9 µM.
For `Clc1ccc2c(c1)C1=C(C(c3ccncc3)O2)C(c2ccc(Br)cc2)n2ncnc2N1` (stereo unspecified), the IC50 was 2.91 µM, the IC90 came out at 3.29 µM and the CC50 is > 40 µM.
Taken in the same sequence, the figures for `O=C1CC(=C(c2ccccc2)c2ccccc2)C(=O)N1CCCCN1CCN(c2ccccc2)CC1` were 17.8 µM, 22.7 µM and > 40 µM.
Taken in the same sequence, the figures for `CC(C)(C)c1ccc(-c2nc(NCc3cccnc3)c3ccccc3n2)cc1` were 4.81 µM, 7.46 µM and > 40 µM.
Taken in the same sequence, the figures for `Oc1ccccc1N1CCN(c2ncnc3sc(-c4ccccc4)cc23)CC1` were 9.21 µM, 13 µM and > 40 µM.
`COc1ccc(NCc2n[nH]nc2-c2ccccc2)cc1Cl`: the IC50 is 25.7 µM, the IC90 is > 100 µM and the CC50 was > 40 µM.
Turning to `O=C(CSc1ccncc1)Nc1ccc2ccccc2c1`, the IC50 was 1.15 µM and the IC90 is > 100 µM.
For `CCOC(=O)C1CCN(c2nc3cc(OC)ccc3cc2C#N)CC1`, the IC50 is 8.91 µM and the IC90 was 14.2 µM.
In the same order, the values of `Nc1cccc(-c2cc3ccccc3oc2=O)c1` are 29.4 µM and > 100 µM.
As to `Nc1c(C(=O)NCCc2ccccc2)c2nc3ccccc3nc2n1CCN1CCOCC1`, the IC50 was 18.6 µM, the IC90 turned out to be 25.4 µM and the CC50 amounted to 31.4 µM.
Taken in the same sequence, the figures for `COc1cc(-c2ccc3oc(-c4ccsc4)c(C#CC4(O)CCCCC4)c3c2)cc(OC)c1OC` were 3.77 µM, > 100 µM and > 40 µM.
For the compound `CS(=O)(=O)Nc1cccc2cccnc12`, the IC50 was 11.7 µM, the IC90 was found to be 12.9 µM and the CC50 was > 40 µM.
On to `C#CCOCCOCCOCCNc1nc(N2CCN(C(=O)[C@H](Cc3ccc(O)cc3)n3cc([C@@H](N)C(C)CC)nn3)CC2)nc(N2CCN(C(=O)[C@H](Cc3cc4ccccc4[nH]3)n3cc([C@@H](N)CC(C)C)nn3)CC2)n1` (stereo partly specified), for which the IC50 was 7.36 µM and the IC90 worked out at 21.5 µM.
In the same order, the values of `CCOC(=O)c1cc(-c2csc(COc3ccccc3)n2)on1` are 1.84 µM and 35.2 µM.

By IC90 is commonly meant the point of the concentration-response curve where the effect stands at 90%. Lower therefore signals an effect from little substance. One may read the IC50 as the concentration that gives 50% inhibition. Broadly, the CC50 is the concentration giving 50% cytotoxicity. A high value points to lower toxicity to the cells.
